Test in all cases: In vitro antibacterial activity, agar dilution MIC
Holding throughout (format): cell-based
A general note: Agar dilution tests growth on a series of plates holding different concentrations.

The test system of test [1] is Staphylococcus aureus CMX 642A. Particulars: Staphylococcus aureus CMX 642A (organism code DD); BHI agar, 35-37 °C, 20 to 24 hours; unit assumed. How it is done:
(§1) Representative compounds of the present invention were assayed in vitro for antibacterial activity as follows: Twelve petri dishes containing successive aqueous dilutions of the test compound mixed with 10 mL of sterilized Brain Heart infusion (BHI) agar (Difco 0418-01-5) were prepared. Each plate was inoculated with 1:100 (or 1:10 for slow-growing strains, such as Micrococcus and Streptococcus) dilutions of up to 32 different microorganisms, using a Steers replicator block. […] In addition, a control plate, using BHI agar containing no test compound, was prepared and incubated at the beginning and end of each test.
(§2) An additional plate containing a compound having known susceptibility patterns for the organisms being tested and belonging to the same antibiotic class as the test compound was also prepared and incubated as a further control, as well as to provide test-to-test comparability.
(§3) After incubation, each plate was visually inspected. The minimum inhibitory concentration (MIC) was defined as the lowest concentration of drug yielding no growth, a slight haze, or sparsely isolated colonies on the inoculum spot as compared to the growth control.

The test system of test [2] is Staphylococcus aureus 1775. Particulars: Staphylococcus aureus 1775 (organism code GG); BHI agar, 35-37 °C, 20 to 24 hours; unit assumed. As to the method:
as §1, §2, §3

The test system of test [3] is Enterococcus faecium ATCC 8043. Particulars: Enterococcus faecium ATCC 8043 (organism code II); BHI agar, 35-37 °C, 20 to 24 hours; unit assumed. As to the method:
as §1, §2, §3

In test [4] the test system is Haemophilis Influenzae DILL AMP R. Particulars: Haemophilis Influenzae DILL AMP R (organism code WW); BHI agar, 35-37 °C, 20 to 24 hours; unit assumed. As to the method:
as §1, §2, §3

The subject of test [5] is Staphylococcus aureus NCTC10649M. Particulars: Staphylococcus aureus NCTC10649M (organism code EE); BHI agar, 35-37 °C, 20 to 24 hours; unit assumed. How it is done:
as §1, §2, §3

For the next test, the system named is Escherichia coli DC-2. Particulars: Escherichia coli DC-2 (organism code SS); BHI agar, 35-37 °C, 20 to 24 hours; unit assumed. As to the method: as §1, §2, §3
The subject of test [6] is Streptococcus pyogenes PIU 2548. Particulars: Streptococcus pyogenes PIU 2548 (organism code NN); BHI agar, 35-37 °C, 20 to 24 hours; unit assumed. How it is done:
as §1, §2, §3

The test system of test [7] is Micrococcus luteus ATCC 4698. Particulars: Micrococcus luteus ATCC 4698 (organism code PP); BHI agar, 35-37 °C, 20 to 24 hours; unit assumed. As to the method: as §1, §2, §3
Test [8] deals with Staphylococcus aureus ATCC 6538P. Particulars: Staphylococcus aureus ATCC 6538P (organism code AA); BHI agar, 35-37 °C, 20 to 24 hours; unit assumed. How it is done:
as §1, §2, §3

Test [9] concerns Staphylococcus aureus A5177. Particulars: Staphylococcus aureus A5177 (organism code BB); BHI agar, 35-37 °C, 20 to 24 hours; unit assumed. As to the method:
as §1, §2, §3

In test [10] the test system is Streptococcus pyogenes EES61. The note with it: Streptococcus pyogenes EES61 (organism code LL); BHI agar, 35-37 °C, 20 to 24 hours; unit assumed. As to the method: as §1, §2, §3
Test [11] concerns Streptococcus Pheumoniae GYR 1171. The note with it: Streptococcus Pheumoniae GYR 1171 (organism code YY); BHI agar, 35-37 °C, 20 to 24 hours; unit assumed. As to the method: as §1, §2, §3
Test [12] deals with Staphylococcus epidermidis 3519. Particulars: Staphylococcus epidermidis 3519 (organism code HH); BHI agar, 35-37 °C, 20 to 24 hours; unit assumed. How it is done: as §1, §2, §3
The test system of test [13] is Nocardia Asteroides ATCC9970. The note with it: Nocardia Asteroides ATCC9970 (organism code VV); BHI agar, 35-37 °C, 20 to 24 hours; unit assumed. As to the method:
as §1, §2, §3

For test [14], the system named is Mycobacterium smegmatis ATCC 114. Particulars: Mycobacterium smegmatis ATCC 114 (organism code UU); BHI agar, 35-37 °C, 20 to 24 hours; unit assumed. As to the method:
as §1, §2, §3

Test [15] concerns Staphylococcus aureus CMX 553. Particulars: Staphylococcus aureus CMX 553 (organism code FF); BHI agar, 35-37 °C, 20 to 24 hours; unit assumed. As to the method: as §1, §2, §3
The subject of the next test is Escherichia coli SS. The note with it: Escherichia coli SS (organism code RR); BHI agar, 35-37 °C, 20 to 24 hours; unit assumed. As to the method: as §1, §2, §3
The subject of another test is Candida albicans CCH 442. The note with it: Candida albicans CCH 442 (organism code TT); BHI agar, 35-37 °C, 20 to 24 hours; unit assumed. How it is done: as §1, §2, §3
For the next test, the system named is Escherichia coli JUHL. The note with it: Escherichia coli JUHL (organism code QQ); BHI agar, 35-37 °C, 20 to 24 hours; unit assumed. As to the method:
as §1, §2, §3

The subject of test [16] is Micrococcus luteus ATCC 9341. The note with it: Micrococcus luteus ATCC 9341 (organism code OO); BHI agar, 35-37 °C, 20 to 24 hours; unit assumed. How it is done: as §1, §2, §3
Test [17] concerns Streptococcus agalactiae CMX 508. The note with it: Streptococcus agalactiae CMX 508 (organism code KK); BHI agar, 35-37 °C, 20 to 24 hours; unit assumed. As to the method: as §1, §2, §3
In test [18] the test system is Streptococcus Pheumoniae ATCC6303. The note with it: Streptococcus Pheumoniae ATCC6303 (organism code XX); BHI agar, 35-37 °C, 20 to 24 hours; unit assumed. How it is done:
as §1, §2, §3

Test [19] relates to Streptococcus Pheumoniae 5649. Particulars: Streptococcus Pheumoniae 5649 (organism code ZZA); BHI agar, 35-37 °C, 20 to 24 hours; unit assumed. As to the method:
as §1, §2, §3

In test [20] the test system is Streptococcus bovis A-5169. Particulars: Streptococcus bovis A-5169 (organism code JJ); BHI agar, 35-37 °C, 20 to 24 hours; unit assumed. How it is done:
as §1, §2, §3

In test [21] the test system is Streptococcus pyogenes 930. Particulars: Streptococcus pyogenes 930 (organism code MM); BHI agar, 35-37 °C, 20 to 24 hours; unit assumed. How it is done:
as §1, §2, §3

Test [22] concerns Staphylococcus aureus A-5278. The note with it: Staphylococcus aureus A-5278 (organism code CC); BHI agar, 35-37 °C, 20 to 24 hours; unit assumed. How it is done:
as §1, §2, §3

The test system of test [23] is Streptococcus Pheumoniae 5979. Particulars: Streptococcus Pheumoniae 5979 (organism code ZZ); BHI agar, 35-37 °C, 20 to 24 hours; unit assumed. How it is done: as §1, §2, §3

The results in this text go back to patent publication EP1025114B1, “3'-N-MODIFIED 6-O-SUBSTITUTED ERYTHROMYCIN KETOLIDE DERIVATIVES HAVING ANTIBACTERIAL ACTIVITY” (priority 1997, dated 1999).

Structures are written as SMILES. In brackets after ≈: the same amount, converted by molar mass. Bounds are passed on as bounds.

Turning to `CC[C@H]1OC(=O)[C@H](C)[C@@H](O[C@H]2C[C@@](C)(OC)[C@@H](O)[C@H](C)O2)[C@H](C)[C@@H](O[C@@H]2O[C@H](C)C[C@H](N(C)C)[C@H]2O)[C@](C)(O)C[C@@H](C)C(=O)[C@H](C)[C@@H](O)[C@]1(C)O` [Ery. A, Erythromycin A, reference compound], the MIC was 0.39 µg/mL (≈ 0.531 µM) in test [1]; more than 100 µg/mL in [2]; 0.05 µg/mL (≈ 0.0681 µM) in test [3]; 4 µg/mL (≈ 5.45 µM) in [4]; 0.39 µg/mL (≈ 0.531 µM) in test [5]; more than 100 µg/mL with Escherichia coli DC-2. Besides, the MIC in [6] turned out to be 6.2 µg/mL (≈ 8.45 µM); in test [7], 0.2 µg/mL (≈ 0.273 µM); in [8], 0.2 µg/mL (≈ 0.273 µM); in test [9], 3.1 µg/mL (≈ 4.22 µM); in test [10], 0.05 µg/mL (≈ 0.0681 µM); in test [11], 0.06 µg/mL (≈ 0.0818 µM). For the same molecule, the MIC in test [12] was 0.39 µg/mL (≈ 0.531 µM); in test [13] it was 0.1 µg/mL (≈ 0.136 µM); in test [14], 3.1 µg/mL (≈ 4.22 µM); in test [15], 0.39 µg/mL (≈ 0.531 µM); against Escherichia coli SS it was 0.78 µg/mL (≈ 1.06 µM); against Candida albicans CCH 442 it was more than 100 µg/mL. Further, the MIC was more than 100 µg/mL in the test on Escherichia coli JUHL; 0.05 µg/mL (≈ 0.0681 µM) in test [16]; 0.05 µg/mL (≈ 0.0681 µM) in [17]; 0.06 µg/mL (≈ 0.0818 µM) in test [18]; 16 µg/mL (≈ 21.8 µM) in test [19]; 0.02 µg/mL (≈ 0.0273 µM) in [20]. In addition, the MIC in [21] and in [22] was more than 100 µg/mL throughout.

On to `C#CCN(C)[C@H]1C[C@@H](C)O[C@@H](O[C@@H]2[C@@H](C)C(=O)[C@@H](C)C(=O)O[C@H](CC)[C@@]3(C)OC(=O)N[C@@H]3[C@@H](C)C(=O)[C@H](C)C[C@@]2(C)OCC=Cc2cnc3ccccc3c2)[C@@H]1O` [Example 10, Compound of Formula (II); R is -CH2CH=CH-(3-quinolyl), R^p is H, W is absent, R^w is H, R^1 is CH2-C≡CH, R^2 is CH3-], for which the MIC in test [1] was 0.2 µg/mL; in test [2] it was more than 100 µg/mL; in test [3], 0.05 µg/mL; in [5], 0.1 µg/mL; in the test on Escherichia coli DC-2, more than 100 µg/mL; in test [6], 0.39 µg/mL. Also, the MIC in test [7] was found to be 0.39 µg/mL; in [8] it was 0.2 µg/mL; in [9], 0.39 µg/mL; in test [10], 0.01 µg/mL; in test [11], 0.03 µg/mL; in test [23], 32 µg/mL. In addition, the MIC in test [12] is 0.2 µg/mL; in test [13] it was 0.2 µg/mL; in test [14] it was 1.56 µg/mL; in test [15], 0.2 µg/mL; with Escherichia coli SS it was 1.56 µg/mL; in the test with Candida albicans CCH 442, more than 100 µg/mL. Moreover, the MIC is more than 100 µg/mL in the test on Escherichia coli JUHL; 0.1 µg/mL in test [16]; 0.01 µg/mL in [17]; 0.03 µg/mL in test [18]; 0.25 µg/mL in test [19]; 0.02 µg/mL in test [20]. In addition, the MIC is 6.2 µg/mL in [21] and more than 100 µg/mL in test [22].

In [4], `CC[C@H]1OC(=O)[C@H](C)C(=O)[C@H](C)[C@@H](O[C@@H]2O[C@H](C)C[C@H](N(C)Cc3cccnc3)[C@H]2O)[C@](C)(OCC=Cc2cnc3ccccc3c2)C[C@@H](C)C(=O)[C@H](C)[C@H]2NC(=O)O[C@@]21C` [Example 21, Compound of Formula (II); R is -CH2CH=CH-(3-quinolyl), R^p is H, W is absent, R^w is H, R^1 is CH2-(3-pyridyl), R^2 is CH3] returned an MIC of 4 µg/mL.

As to `CC[C@H]1OC(=O)[C@H](C)C(=O)[C@H](C)[C@@H](O[C@@H]2O[C@H](C)C[C@H](N(C)Cc3cccc(O)c3)[C@H]2O)[C@](C)(OCC=Cc2cnc3ccccc3c2)C[C@@H](C)C(=O)[C@H](C)[C@H]2NC(=O)O[C@@]21C` [Example 22, Compound of Formula (II); R is -CH2CH=CH-(3-quinolyl), R^p is H, W is absent, R^w is H, R^1 is CH2-(3-hydroxyphenyl), R^2 is CH3], the MIC in test [1] is 0.39 µg/mL; in [2], more than 100 µg/mL; in test [3] it was 0.1 µg/mL; in [4], 4 µg/mL; in test [5], 0.39 µg/mL; in the test with Escherichia coli DC-2, more than 100 µg/mL. The MIC was 0.1 µg/mL in [6]; 0.1 µg/mL in test [7]; 0.2 µg/mL in [8]; 0.39 µg/mL in test [9]; 0.1 µg/mL in [10]; 0.03 µg/mL in test [11]. Moreover, the MIC is 0.39 µg/mL in test [12]; 0.2 µg/mL in test [13]; 0.78 µg/mL in [14]; 0.39 µg/mL in [15]; 0.39 µg/mL with Escherichia coli SS; more than 100 µg/mL in the test on Candida albicans CCH 442. In addition, the MIC in the test with Escherichia coli JUHL is more than 100 µg/mL; in test [16] it was 0.1 µg/mL; in test [17], 0.1 µg/mL; in [18] it was 0.03 µg/mL; in test [19], 0.25 µg/mL; in test [20], 0.1 µg/mL. For the same molecule, the MIC is 3.1 µg/mL in test [21] and more than 100 µg/mL in test [22].
